These results are taken from paper PMC8264259, “A Novel Ruthenium(II) Complex With Lapachol Induces G2/M Phase Arrest Through Aurora-B Kinase Down-Regulation and ROS-Mediated Apoptosis in Human Prostate Adenocarcinoma Cells” (Frontiers in Oncology, 2021).

The test system of one series is Aurora-B. In words: Western blot, Aurora-B expression. Format: cell-based, human. The conditions noted are these: DU-145, increasing concentrations (0.25-1.5 μM), 24 h. As for the experimental part: (§1) Briefly, DU-145 cells were seeded (1.0 × 10^6 cells/well) into six-well plates and maintained to attach at 37°C in 5% CO2. After 24 h, cells were treated with 0.25, 0.50, 1.0, and 1.5 μM of complex (2). DMSO (0.1% v/v) was used as the vehicle control. After 24 h of incubation, cells were collected and suspended in Western blotting lysis buffer (20 mM Tris-HCl pH 7.4, 150 mM NaCl, 1 mM EDTA, and phosphatase and protease inhibitors). Cell lysates were centrifuged at 11,000g for 15 min at 4 °C, and supernatant was collected. Protein concentrations were quantified using the BCA Protein Assay Kit® (Thermo Fischer Scientific), according to the manufacturer’s instructions. For immunoblotting, equal amounts (30 μg) of total protein were electrophoresed in a NuPAGE® 4-12% Bis-Tris gel and transferred to an Invitrolon™ polyvinylidene difluoride (PVDF) membrane (Novex®, Thermo Fischer Scientific) at 100 V for 1 h. PVDF-membrane was washed two times (5 min each) with Tris-buffered saline plus Tween 20 (TBST, Sigma-Aldrich) and blocked in 5% non-fat milk in phosphate buffered saline with Tween®20 (PBST, Sigma-Aldrich) for 1 h at room temperature. […]
On the technique in general: Immunoblotting shows a protein as a band on a membrane.

In series [1] the test system is cleaved caspase-3, -9, and PARP. In words: Western blot, apoptotic proteins. The conditions noted are these: DU-145, 24 h. The class given is cell-based, human. How it is done:
as §1

The next series concerns PNT-2 cells. In words: Comet assay, PNT-2. The class given is cell-based, human. How it is done:
(§2) The comet assay was performed to evaluate DNA damage following the method described by ([37]). Briefly, DU-145 and PNT-2 cells were seeded (1.0 × 10^5 cells/well) in 24-well plates and maintained to attach at 37°C in 5% CO2 for 24 h. After, cells were treated with different concentrations of complex (2) for 24 h. DMSO (0.1% v/v) was used as the vehicle control and methyl methanesulfonate (150 μM, Sigma-Aldrich) as DNA damage inducer. Following 24 h of incubation, the cells were collected, and cell viability assay was performed using trypan blue dye. […] Then, cells were mixed with UltraPure™ Low-Melting-Point Agarose (0.5%, Invitrogen®), and added on pre-coated slides with UltraPure™ Agarose (1.5%, Invitrogen®). After agarose solidification, the slides were immersed in a lysis solution (2.5 M NaCl, 100 mM EDTA, 10 mM Tris, 10% DMSO, 1% Triton X-100, pH 10.4) for 18 h at 4°C. […] The nucleoids were identified in a fluorescence microscope (AxioStar Plus, Carl Zeiss Axio Cam MRc-AxioVision 3.1) using a 516 to 560 nm filter, 590 nm filter barrier, in 20× objective with an integrated digital camera. For each treatment, 100 random nucleoids were analyzed, and the tail fluorescence was measured through the Comet Assay IV™ imaging system (Perceptive Instruments^©, Bury St Edmunds, England).

Series [2] relates to DU-145 cells. The series can be described thus: Comet assay, DU-145. The conditions noted are these: DU-145, 0.5 μM, 24 h. Format: cell-based, human. As for the experimental part:
as §2

Series [3] deals with DU-145 cells. The series can be described thus: Cell cycle analysis (PI, flow cytometry). The class given is cell-based, human. The conditions noted are these: DU-145, 0.25-1.5 μM, 24 h. As for the experimental part:
DNA staining was performed using BD Cycletest™ Plus DNA Kit (BD Biosciences, USA) according to the manufacturer’s instructions. Briefly, DU-145 cells were seeded (5.0 × 10^4 cells/well) into 24-well culture plates and maintained to attach at 37°C in 5% CO2. After 24 h, the culture medium was replaced by complete culture medium containing 0.25, 0.5, 1.0, and 1.5 μM of complex (2). DMSO (0.1% v/v) was used as the vehicle control. Then, after 24 h treatment, the cells were harvested and fixed with 70% ethanol at 4°C for 1 h. Cells were incubated with 0.1 mg/ml RNase and 0.5 mg/ml propidium iodide (PI) for 10 min. Samples were then filtered using 50-µm nylon mesh and the FACSCanto flow cytometer (Becton Dickinson, Franklin Lakes, NJ, USA) was used to analyze the DNA histogram. Data from 10,000 cells were acquired and analyzed using the ModFit software (BD Biosciences, USA). The results were expressed as percentage of cells in each cell cycle phase (G1, S, and G2/M).

The subject of the next series is pBR322 plasmid DNA. The series can be described thus: DNA interactions assay with pBR322 plasmid (agarose gel electrophoresis). The class given is biochemical. The conditions noted are these: 1.0 μM, 37°C, 18 h. How it is done:
Plasmid pBR322 (38 µM, Sigma-Aldrich) was mixed with different concentrations (0.125–1.0 µM) of both complexes and incubated at 37°C for 18 h. Then, the loading buffer was added and the samples were analyzed by agarose gel electrophoresis for 90 min in 1% agarose gel using a Tris-acetate-EDTA (TAE) buffer (0.45 M Tris-HCl, 0.45 M acetic acid, 10 mM EDTA, pH 7.4), and ethidium bromide was employed for staining. Bands were visualized with a ChemiDoc MP imager (BioRad, USA).

Each structure is given as a SMILES string.

Take `CC(C)=CCC1=C([O-])C(=O)c2ccccc2C1=O.F[P-](F)(F)(F)(F)F.[Ru+2].c1ccc(P(CP(c2ccccc2)c2ccccc2)c2ccccc2)cc1.c1cnc2c(c1)ccc1cccnc12` [complex (2), [Ru(Lap)(dppm)(phen)]PF6]: the Aurora-B protein levels entry in the series on Aurora-B is reported as “downregulated”. The “activation of downstream apoptotic proteins” value in series [1] was “increase in the activation of cleaved caspase-3, -9, and PARP”. Moreover, the “DNA damage (comet tail intensity)” value in the series on PNT-2 cells (PNT-2, maximum tested concentration 6.0 μM (~IC50), 24 h) is “increase in DNA damage”; with PNT-2 cells (PNT-2 prostate normal cells, same concentrations as DU-145, 24 h), “no DNA damage”; in the series with DU-145 cells [2], “significant DNA damage increase”. Besides, in the series with DU-145 cells [3], the cell cycle distribution result is recorded as “increased cell number at the G2/M phase”. Further, in the series on pBR322 plasmid DNA, the “nuclease activity on pBR322 (supercoiled to linear)” value is listed as “single-strand DNA cleavage”.
